Data taken from BindingDB's records for doi:10.7270/Q25719FH (Srmlsc, 2007).
pEC50: −log10 of the molar value.

What follows are molecules tested against Multidrug resistance-associated protein 1 (Homo sapiens, UniProt P33527) (assay: viability protection against doxorubicin, MRP-1 line – cell-based, doxorubicin EC50 shift, dose response (AID 844)).
Sequence of Multidrug resistance-associated protein 1 (P33527 whole entry): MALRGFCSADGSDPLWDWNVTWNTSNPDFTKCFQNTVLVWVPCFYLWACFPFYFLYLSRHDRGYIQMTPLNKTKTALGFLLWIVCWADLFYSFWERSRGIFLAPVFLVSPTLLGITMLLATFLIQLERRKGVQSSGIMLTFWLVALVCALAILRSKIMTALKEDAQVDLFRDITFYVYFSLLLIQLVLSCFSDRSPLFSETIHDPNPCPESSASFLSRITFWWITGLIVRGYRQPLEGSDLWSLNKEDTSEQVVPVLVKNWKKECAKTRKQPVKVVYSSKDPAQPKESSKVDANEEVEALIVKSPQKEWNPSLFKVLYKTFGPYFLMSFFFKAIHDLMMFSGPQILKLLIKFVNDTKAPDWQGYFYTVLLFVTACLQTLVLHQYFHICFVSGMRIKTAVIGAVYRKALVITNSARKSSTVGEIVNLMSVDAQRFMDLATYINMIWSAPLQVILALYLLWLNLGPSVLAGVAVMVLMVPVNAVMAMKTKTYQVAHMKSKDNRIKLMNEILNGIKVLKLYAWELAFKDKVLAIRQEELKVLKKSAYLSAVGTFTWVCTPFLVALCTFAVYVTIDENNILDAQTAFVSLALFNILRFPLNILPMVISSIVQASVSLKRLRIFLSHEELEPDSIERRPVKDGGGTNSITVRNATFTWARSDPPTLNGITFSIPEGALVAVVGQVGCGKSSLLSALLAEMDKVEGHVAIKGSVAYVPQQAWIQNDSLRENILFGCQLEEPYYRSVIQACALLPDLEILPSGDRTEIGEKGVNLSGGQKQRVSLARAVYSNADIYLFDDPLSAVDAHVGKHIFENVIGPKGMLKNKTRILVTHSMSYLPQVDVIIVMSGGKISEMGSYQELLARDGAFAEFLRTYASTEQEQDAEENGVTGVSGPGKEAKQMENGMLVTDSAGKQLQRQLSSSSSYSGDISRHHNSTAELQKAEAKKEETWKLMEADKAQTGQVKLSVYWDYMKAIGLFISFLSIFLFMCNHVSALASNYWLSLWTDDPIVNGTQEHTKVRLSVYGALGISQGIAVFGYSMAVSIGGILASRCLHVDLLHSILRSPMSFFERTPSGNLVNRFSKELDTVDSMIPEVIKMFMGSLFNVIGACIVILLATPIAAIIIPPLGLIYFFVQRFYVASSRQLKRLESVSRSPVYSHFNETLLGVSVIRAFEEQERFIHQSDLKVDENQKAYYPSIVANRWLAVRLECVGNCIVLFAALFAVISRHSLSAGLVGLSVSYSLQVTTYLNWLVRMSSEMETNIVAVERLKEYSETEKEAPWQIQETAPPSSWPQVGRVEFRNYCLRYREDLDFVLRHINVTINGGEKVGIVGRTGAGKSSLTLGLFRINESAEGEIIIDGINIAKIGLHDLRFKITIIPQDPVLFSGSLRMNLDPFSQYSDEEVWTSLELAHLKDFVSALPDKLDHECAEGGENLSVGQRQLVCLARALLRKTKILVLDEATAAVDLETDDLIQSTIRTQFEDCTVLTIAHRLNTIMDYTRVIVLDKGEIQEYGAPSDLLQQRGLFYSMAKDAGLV

Structure (SMILES)	pEC50
COc1ccc(CN=Nc2cc(OC)ncn2)cc1 [6-methoxy-N-[(4-methoxyphenyl)methylideneamino]-4-pyrimidinamine]	5.51
O=C1Nc2ccccc2[C@@]12N[C@@H](Cc1ccc(O)cc1)c1c2c(O)n(-c2ccc(F)cc2)c1O [(1S,3R,3aR,6aS)-5-(4-fluorophenyl)-1-(4-hydroxybenzyl)spiro[1,2,3a,6a-tetrahydropyrrolo[3,4-c]pyrrole-3,3'-indoline]-2',4,6-trione]	5.10
COc1ccc(N2C(=S)C(C#N)C(=O)NC2c2ccco2)cc1 (stereo unspecified) [2-(2-furanyl)-4-mercapto-3-(4-methoxyphenyl)-6-oxo-1,2-dihydropyrimidine-5-carbonitrile]	5.66
O=C(Nc1nc(O)cs1)c1ccccc1 [MLS000106877]	5.42
COc1cccc(C2C(C(=O)Nc3nc4ccccc4s3)=C(C)N=C3CC(C)(C)CC(=O)C32)c1OC (stereo unspecified) [N-(1,3-benzothiazol-2-yl)-4-(2,3-dimethoxyphenyl)-2,7,7-trimethyl-5-oxo-1,4,6,8-tetrahydroquinoline-3-carboxamide]	5.80
COc1ccc(-n2c(O)cc(N3CCC(O)(c4cccc(C(F)(F)F)c4)CC3)c2O)cc1 [1-(4-methoxyphenyl)-3-[4-oxidanyl-4-[3-(trifluoromethyl)phenyl]piperidin-1-yl]pyrrolidine-2,5-dione]	5.32
CCc1ccc(C(C)N=Nc2cc(Cl)nc(C)n2)cc1 (stereo unspecified) [(6-chloro-2-methyl-pyrimidin-4-yl)-[1-(4-ethylphenyl)ethylideneamino]amine]	5.43
COc1ccc(-n2c(O)c(CC(=O)Nc3ccc(F)cc3)n(CCc3cccs3)c2=O)cc1 [2-[2,5-diketo-1-(4-methoxyphenyl)-3-[2-(2-thienyl)ethyl]imidazolidin-4-yl]-N-(4-fluorophenyl)acetamide]	5.36
COc1ccc(CN=Nc2cc(C)nc(-n3nc(C)cc3C)n2)cc1 [SMR000212741]	6.18
N#Cc1ccc(-n2c(O)c3[nH][nH]c(C(=O)c4ccc5ccccc5n4)c-3c2=O)cc1 [4-[(3aS,6aS)-4,6-dioxo-3-[oxo(2-quinolinyl)methyl]-3a,6a-dihydro-1H-pyrrolo[3,4-c]pyrazol-5-yl]benzonitrile]	5.15
Oc1cc(N2CCC(O)(c3ccc(Br)cc3)CC2)c(O)n1-c1ccc(Cl)cc1 [3-[4-(4-bromophenyl)-4-hydroxy-1-piperidinyl]-1-(4-chlorophenyl)-2,5-pyrrolidinedione]	5.13
Cc1cc(N=NCc2ccc(O)cc2O)nc(-n2nc(C)cc2C)n1 [(4E)-4-[[2-[2-(3,5-dimethylpyrazol-1-yl)-6-methyl-pyrimidin-4-yl]hydrazinyl]methylidene]-3-oxidanyl-cyclohexa-2,5-dien-1-one]	> 6.71
O=c1[nH]c2ccccc2n1C1CCN(c2cc(O)n(-c3ccc(F)cc3)c2O)CC1	5.12
O=[N+]([O-])c1ccc(N=NCc2ccccc2)c(F)c1 [2-fluoranyl-4-nitro-N-[(phenylmethylidene)amino]aniline]	5.46
Cc1cccc(NC(=O)Cc2sc(=O)n(-c3ccccc3)c2O)c1 [2-(2,4-Dioxo-3-phenyl-thiazolidin-5-yl)-N-m-tolyl-acetamide]	5.29
COC1(OC)C(O)CCC(N=O)C1N=O (stereo unspecified) [2,2-dimethoxy-3-nitroso-4-(oxidanylamino)cyclohex-3-en-1-ol]	5.38
COc1cccc(C=NNC(=O)c2[nH][nH]c(=O)c2C)c1O [N'-[(E)-(5-methoxy-6-oxidanylidene-cyclohexa-2,4-dien-1-ylidene)methyl]-4-methyl-5-oxidanylidene-1,4-dihydropyrazole-3-carbohydrazide]	5.19
COc1ccc(CN=Nc2nc(-c3ccc(Cl)cc3)cc(C(F)(F)F)n2)cc1OC [4-(4-chlorophenyl)-N-[(3,4-dimethoxyphenyl)methylideneamino]-6-(trifluoromethyl)-2-pyrimidinamine]	5.72
C=C(C)C(=O)Nc1cc(=O)n(-c2ccccc2)[nH]1 [2-methyl-N-(5-oxo-1-phenyl-4H-pyrazol-3-yl)prop-2-enamide]	5.25
C=CCc1c(C)nc(-c2ccccc2)nc1N=NC(C)c1ccc(N)cc1 (stereo unspecified) [(5-allyl-6-methyl-2-phenyl-pyrimidin-4-yl)-[1-(4-aminophenyl)ethylideneamino]amine]	5.16
Cc1cc(=O)oc2c1ccc1oc(C(N=O)c3ccccc3)c(C)c12 (stereo unspecified) [4,9-dimethyl-8-(N-oxidanyl-C-phenyl-carbonimidoyl)furo[2,3-h]chromen-2-one]	5.15
CCOc1ccc2c(c1)C(N=O)C(=O)N2C (stereo unspecified) [(3E)-5-ethoxy-1-methyl-1H-indole-2,3-dione 3-oxime]	5.50
O=C(O)c1cccc(-n2c(O)c3c(c2O)CC(Cl)=CC3)c1 [3-[5-chloranyl-1,3-bis(oxidanylidene)-3a,4,7,7a-tetrahydroisoindol-2-yl]benzoic acid]	5.10
COc1cc(C2NC(=O)N=C(C)C2C(=O)OCc2ccc(C)cc2)cc(OC)c1O (stereo unspecified) [(4-methylphenyl)methyl 4-(3,5-dimethoxy-4-oxidanyl-phenyl)-6-methyl-2-oxidanylidene-3,4-dihydro-1H-pyrimidine-5-carboxylate]	5.44
CC1=CC([N+](=O)[O-])=CC(C=NNC(=O)c2cc(C)n[nH]2)C1=O (stereo unspecified) [5-methyl-N'-[(E)-(5-methyl-3-nitro-6-oxo-1-cyclohexa-2,4-dienylidene)methyl]-1H-pyrazole-3-carbohydrazide]	5.54
O=S(=O)(c1ccc(Cl)cc1Br)N1CCCCC1 [1-(2-bromanyl-4-chloranyl-phenyl)sulfonylpiperidine]	5.27

Structure (SMILES)	pEC50
Oc1nc(Nc2ccc(Cl)cc2)sc1Cc1cccc(Cl)c1Cl [2-(4-chloroanilino)-5-(2,3-dichlorobenzyl)-2-thiazolin-4-one]	5.19
COc1ccc(-n2c(O)cc(N3CCC(n4c(=O)[nH]c5ccccc54)CC3)c2O)cc1	5.25
O=C1CC(=O)CC(c2ccc(Cl)cc2)C1 [5-(4-chlorophenyl)-3-hydroxy-1-cyclohex-2-enone]	5.25
COc1cccc(C=Nn2c(O)csc2=S)c1O [3-[[(E)-(5-methoxy-6-oxidanylidene-cyclohexa-2,4-dien-1-ylidene)methyl]amino]-2-sulfanylidene-1,3-thiazolidin-4-one]	5.15
Oc1cc(N2CCN(c3nc4ccccc4s3)CC2)c(O)n1-c1ccc(F)cc1 [3-[4-(1,3-benzothiazol-2-yl)-1-piperazinyl]-1-(4-fluorophenyl)pyrrolidine-2,5-dione]	5.19
Oc1nc(Nc2ccc(Cl)cc2)sc1Cc1cc(Cl)ccc1Cl [2-(4-chloroanilino)-5-(2,5-dichlorobenzyl)-2-thiazolin-4-one]	5.23
CCOC(=O)C1C(C)=Nc2ncnn2C1c1cccnc1 (stereo unspecified)	5.35
O=C1Nc2ccc(F)cc2C12NC(Cc1ccc(O)cc1)c1c2c(O)n(-c2ccc(F)cc2)c1O [(3aR,6aS)-5'-fluoranyl-5-(4-fluorophenyl)-1-[(4-hydroxyphenyl)methyl]spiro[1,2,3a,6a-tetrahydropyrrolo[3,4-c]pyrrole-3,3'-1H-indole]-2',4,6-trione]	5.12
COc1ccc(Cc2nnc(N=NCc3ccc(O)cc3O)[nH]c2=O)cc1OC	6.08
O=C1c2ccccc2SC1/C=N/c1cc([N+](=O)[O-])ccc1O (stereo unspecified) [(2Z)-2-[[(5-nitro-2-oxidanyl-phenyl)amino]methylidene]-1-benzothiophen-3-one]	6.34
O=C1/C(=C/c2nc3ccccc3[nH]2)SC(=S)N1c1ccc(F)cc1 [MLS000331487]	5.47
COc1ccc(NC(=O)Cc2c(O)n(-c3ccc(F)cc3)c(=S)n2NC(=O)c2ccccc2)cc1 [MLS000592105]	5.37
CCN(C1CCCCC1)S(=O)(=O)c1cc(C)ccc1OC [MLS000028538]	5.48
Oc1csc(=S)n1N=C1CCCCCC1 [SMR000212426]	5.30
O=C(O)c1ccc(N=NCc2ccc(F)c(F)c2)cc1 [4-[2-[(3,4-difluorophenyl)methylidene]hydrazinyl]benzoic acid;sulfuric acid]	5.15
N#CC1C(=N)SC(=N)C(C#N)C1c1cccc(O)c1 (stereo unspecified) [2,6-Diamino-4-(3-hydroxy-phenyl)-4H-thiopyran-3,5-dicarbonitrile]	5.24
Cc1ccccc1NC(=O)Cc1sc(=O)n(-c2ccccc2)c1O [2-(2,4-Dioxo-3-phenyl-thiazolidin-5-yl)-N-o-tolyl-acetamide]	5.14
CCN(CC)S(=O)(=O)c1ccc(N=NC(C#N)C#N)cc1 [4-[2-(dicyanomethylene)hydrazino]-N,N-diethylbenzenesulfonamide]	5.43
CC1CCN(S(=O)(=O)c2ccc(Br)s2)CC1 [1-(5-bromanylthiophen-2-yl)sulfonyl-4-methyl-piperidine]	5.45
CCOC(=O)C1C(C)=Nc2sc(C(=O)c3ccc(OC)cc3)c(N)c2C1c1ccc(C(=O)OC)cc1 (stereo unspecified) [3-Amino-2-(4-methoxy-benzoyl)-4-(4-methoxycarbonyl-phenyl)-6-methyl-4,7-dihydro-thieno[2,3-b]pyridine-5-carboxylic acid ethyl ester]	5.96
C=CCc1c(C)nc(-c2ccccc2)nc1N=NCc1ccccc1 [6-methyl-2-phenyl-N-[(phenylmethylene)amino]-5-prop-2-enyl-4-pyrimidinamine]	5.33
C=CCc1c(C)nc(-c2ccccc2)nc1N=NC(C)c1ccccc1 (stereo unspecified) [(5-allyl-6-methyl-2-phenyl-pyrimidin-4-yl)-(1-phenylethylideneamino)amine]	5.63
Cc1cccc(Cc2sc(Nc3ccccn3)nc2O)c1 [5-(3-Methyl-benzyl)-2-(pyridin-2-ylimino)-thiazolidin-4-one]	5.21
Cc1ccc(-n2[nH]c(C)c(C(c3ccccc3O)c3c(C)[nH]n(-c4ccc(C)cc4C)c3=O)c2=O)c(C)c1	5.42
COc1ccccc1C1C(C(=O)c2sc(C)nc2C)C(=O)C(=O)N1CCN1CCOCC1 (stereo unspecified) [3-(2,4-dimethyl-1,3-thiazole-5-carbonyl)-4-hydroxy-2-(2-methoxyphenyl)-1-(2-morpholin-4-ylethyl)-2H-pyrrol-5-one]	5.42
